Experimental data from patent US10913773B2, “Bicyclic peptidyl inhibitor of tumor necrosis factor-alpha” (Ohio State Innovation Foundation, priority 2016, dated 2021).

How the values were obtained:
TNFα-TNFR1 interaction = target: T1, TNFα-TNFR1 interaction (Homo sapiens, UniProt P01375); experiment: ELISA inhibition of TNFα-TNFR1 interaction (immobilized biotinylated TNFα, TNFR1-HRP); format: binding
T1 construct: made in house; host or cells: Escherichia coli (TNFα)
Procedure: Inhibition of TNFα-TNRF1 interaction by ELISA was carried out as previously described (Lian, W.; et al., supra).
Because of its high-throughput capability, FA analysis had been used to generate all of the SAR data described above. […] To confirm the SAR data obtained by FA analysis, some of the compounds in Table 5 (as well as new compounds) were resynthesized without the Lys(FITC) label and employed a more sensitive ELISA-based assay to determine the IC50 values for inhibition of the TNFα-TNFR1 interaction. Briefly, biotinylated TNFα was immobilized onto a NeutrAvidin-coated surface. TNFR1 conjugated with horseradish peroxidase (HRP) (0.5 nM) was added along with different concentrations of a peptide inhibitor. After washing, the amount of bound TNFR1-HRP was quantitated by ELISA. […] In agreement with the FA results, either extension at the C-terminus of β-Ala with another amino acid (C1-67 to C1-70) or side-chain modification of β-Ala (C1-71 to C1-73) decreased TNFα binding.

TNFα [1] = target: T2, TNFα (Homo sapiens, UniProt P01375); experiment: FA-based competition with FITC-labeled C1 for binding to TNFα; conditions: 2 μM TNFα, 100 nM C1-NNNK(FITC), 0-15 μM competitor
T2 construct: ybbR tag (13 aa) (N); made in house; host or cells: Escherichia coli
Procedure: FIG. 6A is a graph showing the competition for binding to TNFα (2 μM) between C1-74-2 (0-15 μM) and C1-NNNK(FITC) (100 nM) as monitored by FA. FIG. 6B is a graph showing binding of infliximab-HRP conjugate to immobilized TNFα in the absence and presence of C1-74-2 (0, 2, or 6 μM).
(§1) [formula] where Y is the measured anisotropy at a given TNFα concentration x; L is the bicyclic peptide concentration; Qb/Qf is the correction fact for dye-protein interaction; Amax is the maximum anisotropy when all the peptides are bound to TNFα, while Amin is the minimum anisotropy. Competition experiments were performed by incubating 100 nM Asn-Asn-Asn-Lys(FITC)-labeled anticachexin C1 (Table 1), 2 μM of TNFα, and varying concentrations of unlabeled competitor peptide (0-20 μM) in the above buffer for 2 h. The FA values were plotted against the competitor peptide concentration to determine the IC50 values.
Target sequence in this assay (P01375 77-233 limits assumed): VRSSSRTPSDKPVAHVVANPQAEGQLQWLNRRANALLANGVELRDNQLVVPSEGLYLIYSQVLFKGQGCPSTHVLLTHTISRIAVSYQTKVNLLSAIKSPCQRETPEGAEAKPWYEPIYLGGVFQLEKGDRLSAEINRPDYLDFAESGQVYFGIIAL

TNFα [2] = target: T2, TNFα; experiment: Fluorescence anisotropy (FA) binding of fluorescently labeled bicyclic peptides to TNFα; conditions: labeled at free N-terminal amine with 6-carboxyfluorescein
Procedure: FITC-labeled bicyclic peptide (50 or 100 nM) were incubated with varying concentrations of TNFα (0-5 μM) in 30 mM HEPES, pH 7.4, 150 mM NaCl, and 2 mM magnesium acetate for 2 h. The FA values were measured on a Molecular Devices Spectramax M5 spectrofluorimeter, with excitation and emission wavelengths at 485 and 525 nm, respectively. Equilibrium dissociation constants (KD) were determined by plotting the FA values as a function of TNFα concentration and fitting the data to the following equation
as §1
To identify residues significant for TNFα binding, each residue of anticachexin C1 (other than D-alanine at position-3, L-lysine at position-4, and L-2,3-diaminopropionic acid (Dap) at position-10) was individually replaced with an alanine (or D-alanine). To facilitate binding analysis by fluorescence anisotropy (FA), a tetrapeptide NNNK (SEQ ID NO: 1) was added to the C-terminus of each bicyclic peptide and the lysine side chain was labeled with fluorescein isothiocyanate (FITC) during solid-phase synthesis (Scheme 1). The three asparagine residues were added to improve the aqueous solubility of the bicyclic peptides. The bicyclic peptide was prepared by first synthesizing the full-length linear sequence on Rink amide resin using standard Fmoc/HBTU chemistry. The side chains of the two internal cyclization residues, L-lysine and Dap, were protected with monomethoxytrityl (Mmt) groups, whereas the C-terminal lysine was protected with an allyloxycarbonyl (Alloc) group. After removal of the N-terminal Fmoc group, a trimesic acid was coupled to the N-terminal amine using HBTU as the coupling agent. Next, the Mmt groups were selectively removed from the Lys and Dap side chains by 2% TFA and the peptide was cyclized by treatment with (benzotriazol-1-yloxy)tripyrrolidinophosphonium hexafluorophosphate (PyBOP). The Alloc group on the C-terminal lysine side chain was removed by treatment with Pd(PPh3)4 and the bicyclic peptide was selectively labeled at the C-terminal lysine by treating the resin with FITC. […] On the other hand, phenylglycine (Phg)-1 and glycine-7 play more minor roles in binding.

[3] = test system: TNFα-induced activation of NF-κB; experiment: NF-κB luciferase reporter assay in NF-κB reporter (Luc)-HEK293 cells; format: cell-based; conditions: 6 μM peptide, 5 ng/mL TNFα
Procedure: NF-κB reporter (Luc)-HEK293 cells 30 (BPS Bioscience, San Diego, Calif.) were seeded at a density of 5,000 cells per well in Greiner white 96-well cell culture microplates in 50 μL of growth medium (DMEM+10% FBS+1% P/S). Cells were incubated overnight at 37° C. in the presence of 5% CO2. TNFα (5 ng/mL) and different concentrations of compound C1-74-2 (0-6 μM) were incubated for 1 h in 5 μL of growth medium (DMEM+5% FBS+1% P/S) at 37° C. in the presence of 5% CO2. The growth medium in the plate was replaced with 50 μL of fresh medium (DMEM+5% FBS+1% P/S). The pre-incubated TNFα and peptide mixture (5 μL) was added into each well, with 5 μL of growth medium only added as the control. The cells were incubated at 37° C. with 5% CO2 for 2 h. Fifty μL of ONE-Step™ Luciferase Assay reagent (BPS Bioscience, San Diego, Calif.) was added into each well. The whole plate was incubated at room temperature for 5 min and the luminescence generated was measured on a Tecan M1000 Pro microplate reader.
WEHI-13VAR cells were treated with TNFα in the presence of increasing concentrations of C1-74-2 (0-20 μM) and the cell lysates were probed with antibodies specific for phosphorylated JNK (p-JNK) as well as total JNK. […]

SMILES: CC(=O)[C@@H]1CCCN(C(=O)[C@@H](Cc2c[nH]cn2)NC(=O)C(N)C(C)C)C1 (some centres unmarked) [Compound C1-74-2]
- IC50 (TNFα-TNFR1 interaction; inhibition of TNFα-TNFR1 interaction, unlabeled peptides): 12 ± 2 nM
- Improvement of IC50 over C1-74 (fold) (TNFα-TNFR1 interaction; relative to C1-74): ~6 fold
- Competition with FITC-labeled C1 for binding to TNFα (TNFα [1]): competed with FITC-labeled C1 for binding to TNFα
- Kd (TNFα [2]): 40 ± 7 nM
- Reduction of TNFα-induced luciferase activity [3]: ~50%
